Test results from patent publication US5672715A, “Herbicidal substituted 3-aryl-pyrazoles” (Monsanto Company, priority 1995, dated 1997).
Several values for one entry are separate records, joined by “and”; a condition that tells them apart may be missing. Equal values may be shown once.

Assays:
Assay in all cases: pre-emergence herbicide test
Format in all cases: in vivo
Barnyardgrass = details: Echinochloa crus-galli, pre-emergence, read-out: % plant inhibition; for inhibition at 40.0143 g/ha: 0.0357 lb/A; for inhibition at 200.072 g/ha: 0.1785 lb/A
Outline: (§1)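 Greenhouse pan assay in which seeds lie under a treated topsoil cover; carrier was acetone or water. Inhibition (%) was recorded about 14 days post-treatment.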

Bedstraw Catchweed = details: for inhibition at 1000.92 g/ha: 0.893 lb/A
Outline: as §1

Blackgrass = tested on: Blackgrass
Outline: as §1

Cocklebur = details: for inhibition at 40.0143 g/ha: 0.0357 lb/A
Outline: as §1

Common Chickweed = details: pre-emergence, read-out: % plant inhibition
Outline: as §1

Corn = details: for inhibition at 40.0143 g/ha: 0.0357 lb/A
Outline: as §1

Morning Glory = details: for inhibition at 40.0143 g/ha: 0.0357 lb/A
Outline: as §1

Soybean = details: Glycine max, pre-emergence, read-out: % plant inhibition; for inhibition at 40.0143 g/ha: 0.0357 lb/A; for inhibition at 200.072 g/ha: 0.1785 lb/A; for inhibition at 1000.92 g/ha: 0.893 lb/A
Outline: as §1

Wheat = details: Triticum aestivum, pre-emergence, read-out: % plant inhibition
Outline: as §1

Yellow Nutsedge = details: Cyperus, read-out: % plant inhibition; for inhibition at 40.0143 g/ha: 0.0357 lb/A; for inhibition at 200.072 g/ha: 0.1785 lb/A
Outline: as §1

[1] = Galium aparine, pre-emergence, 0.1785 lb/A, read-out: % plant inhibition
[2] = Galium aparine, pre-emergence, read-out: % plant inhibition
[3] = Xanthium strumarium, pre-emergence, read-out: % plant inhibition
[4] = Xanthium strumarium, pre-emergence, 0.893 lb/A, read-out: % plant inhibition
[5] = Zea mays, pre-emergence, read-out: % plant inhibition
[6] = Ipomoea, pre-emergence, read-out: % plant inhibition
[7] = Ipomoea, pre-emergence, 0.893 lb/A, read-out: % plant inhibition

Cc1c(-c2cc(F)c([N+](=O)[O-])cc2F)nn(C)c1C(F)(F)F [Compound 35]
inhibition at 40.0143 g/ha (Barnyardgrass): 0% | inhibition at 200.072 g/ha (Barnyardgrass): 0% | inhibition at 5043.82 g/ha (Barnyardgrass; 4.5 lb/A): 95% | inhibition at 200.072 g/ha (Bedstraw Catchweed; [1]): 30% | inhibition at 1000.92 g/ha (Bedstraw Catchweed; [2]): 100% | inhibition at 5043.82 g/ha (Bedstraw Catchweed; Galium aparine, pre-emergence, 4.5 lb/A, read-out: % plant inhibition): 100% | inhibition at 200.072 g/ha (Blackgrass; Alopecurus myosuroides, pre-emergence, 0.1785 lb/A, read-out: % plant inhibition): 0% | inhibition at 1000.92 g/ha (Blackgrass; Alopecurus myosuroides, pre-emergence, 0.893 lb/A, read-out: % plant inhibition): 35% | inhibition at 5043.82 g/ha (Blackgrass; Alopecurus myosuroides, pre-emergence, 4.5 lb/A, read-out: % plant inhibition): 80% | % plant inhibition (Cocklebur; 0.893 lb/A): 35% | inhibition at 40.0143 g/ha (Cocklebur; [3]): 0% | inhibition at 1000.92 g/ha (Cocklebur; [4]): 55% | inhibition at 5043.82 g/ha (Cocklebur; Xanthium strumarium, pre-emergence, 4.5 lb/A, read-out: % plant inhibition): 90% | inhibition at 200.072 g/ha (Common Chickweed; 0.1785 lb/A): 0% | inhibition at 1000.92 g/ha (Common Chickweed; 0.893 lb/A): 35% | inhibition at 5043.82 g/ha (Common Chickweed; 4.5 lb/A): 95% | % plant inhibition (Corn; 0.1785 lb/A): 5% | inhibition at 40.0143 g/ha (Corn; [5]): 0% | inhibition at 5043.82 g/ha (Corn; Zea mays, pre-emergence, 4.5 lb/A, read-out: % plant inhibition): 55% | % plant inhibition (Morning Glory; 0.893 lb/A): 80% | inhibition at 40.0143 g/ha (Morning Glory; [6]): 0% | inhibition at 1000.92 g/ha (Morning Glory; [7]): 85% | inhibition at 5043.82 g/ha (Morning Glory; Ipomoea, pre-emergence, 4.5 lb/A, read-out: % plant inhibition): 85% | inhibition at 40.0143 g/ha (Soybean): 0% | inhibition at 200.072 g/ha (Soybean): 0% | inhibition at 1000.92 g/ha (Soybean): 40% | inhibition at 5043.82 g/ha (Soybean; 4.5 lb/A): 55% | inhibition at 200.072 g/ha (Wheat; 0.1785 lb/A): 0% | inhibition at 1000.92 g/ha (Wheat; 0.893 lb/A): 0% | inhibition at 5043.82 g/ha (Wheat; 4.5 lb/A): 10% | inhibition at 40.0143 g/ha (Yellow Nutsedge): 0% | inhibition at 200.072 g/ha (Yellow Nutsedge): 0% | inhibition at 5043.82 g/ha (Yellow Nutsedge; 4.5 lb/A): 30%

COc1cc(-c2nn(C)c(C(F)(F)F)c2C)c(F)cc1[N+](=O)[O-] [Compound 36]
inhibition at 7.95803 g/ha (Barnyardgrass; 0.0071 lb/A): 0% | inhibition at 40.0143 g/ha (Barnyardgrass): 20% | inhibition at 200.072 g/ha (Barnyardgrass): 90% | inhibition at 1000.92 g/ha (Barnyardgrass; 0.893 lb/A): 100% | % plant inhibition (Bedstraw Catchweed; 0.1785 lb/A): 80% | inhibition at 7.95803 g/ha (Bedstraw Catchweed; Galium aparine, pre-emergence, 0.0071 lb/A, read-out: % plant inhibition): 0% | inhibition at 200.072 g/ha (Bedstraw Catchweed; [1]): 100% | inhibition at 1000.92 g/ha (Bedstraw Catchweed; [2]): 100% | % plant inhibition (Blackgrass; 0.893 lb/A): 100% and 50% | inhibition at 7.95803 g/ha (Blackgrass; Alopecurus myosuroides, pre-emergence, 0.0071 lb/A, read-out: % plant inhibition): 0% | inhibition at 40.0143 g/ha (Blackgrass; Alopecurus myosuroides, pre-emergence, 0.0357 lb/A, read-out: % plant inhibition): 0% | inhibition at 7.95803 g/ha (Cocklebur; Xanthium strumarium, pre-emergence, 0.0071 lb/A, read-out: % plant inhibition): 0% | inhibition at 40.0143 g/ha (Cocklebur; [3]): 20% | inhibition at 200.072 g/ha (Cocklebur; Xanthium strumarium, pre-emergence, 0.1785 lb/A, read-out: % plant inhibition): 0% | inhibition at 1000.92 g/ha (Cocklebur; [4]): 85% | inhibition at 7.95803 g/ha (Common Chickweed; 0.0071 lb/A): 0% | inhibition at 7.95803 g/ha (Corn; Zea mays, pre-emergence, 0.0071 lb/A, read-out: % plant inhibition): 0% | inhibition at 40.0143 g/ha (Corn; [5]): 10% | inhibition at 200.072 g/ha (Corn; Zea mays, pre-emergence, 0.1785 lb/A, read-out: % plant inhibition): 55% | inhibition at 1000.92 g/ha (Corn; Zea mays, pre-emergence, 0.893 lb/A, read-out: % plant inhibition): 90% | inhibition at 7.95803 g/ha (Morning Glory; Ipomoea, pre-emergence, 0.0071 lb/A, read-out: % plant inhibition): 0% | inhibition at 40.0143 g/ha (Morning Glory; [6]): 10% | inhibition at 200.072 g/ha (Morning Glory; Ipomoea, pre-emergence, 0.1785 lb/A, read-out: % plant inhibition): 60% | inhibition at 1000.92 g/ha (Morning Glory; [7]): 90% | inhibition at 7.95803 g/ha (Soybean; 0.0071 lb/A): 0% | inhibition at 40.0143 g/ha (Soybean): 0% | inhibition at 200.072 g/ha (Soybean): 0% | inhibition at 1000.92 g/ha (Soybean): 10% | inhibition at 7.95803 g/ha (Wheat; 0.0071 lb/A): 0% | inhibition at 40.0143 g/ha (Wheat; 0.0357 lb/A): 0% | inhibition at 7.95803 g/ha (Yellow Nutsedge; 0.0071 lb/A): 0% | inhibition at 40.0143 g/ha (Yellow Nutsedge): 0% | inhibition at 200.072 g/ha (Yellow Nutsedge): 0% | inhibition at 1000.92 g/ha (Yellow Nutsedge; 0.893 lb/A): 0%
